Assay results from patent US20250346585A1 (Alexion Pharmaceuticals, Inc., priority 2022, published 2025).

Target: Human complement C1s enzyme (Homo sapiens (Human), UniProt P09871)
Test: Human C1s enzyme assay
Assay type: biochemical
Details: Human C1s enzyme assay of Example 3; read-out: IC50 (Stars)
Outline: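 Purified serum-derived human C1s (1.16 nM final) preincubated 5 min at room temperature with compound in 50 mM Tris, 1 M NaCl, pH 7.5. Z-L-Lys-SBzl thioester substrate and DTNB added (100 μM each, final); A405 read every 30 s for 30 min. IC50 from nonlinear regression of reaction rates against compound concentration.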

Sequence of Human complement C1s enzyme (P09871 438-688 limits assumed): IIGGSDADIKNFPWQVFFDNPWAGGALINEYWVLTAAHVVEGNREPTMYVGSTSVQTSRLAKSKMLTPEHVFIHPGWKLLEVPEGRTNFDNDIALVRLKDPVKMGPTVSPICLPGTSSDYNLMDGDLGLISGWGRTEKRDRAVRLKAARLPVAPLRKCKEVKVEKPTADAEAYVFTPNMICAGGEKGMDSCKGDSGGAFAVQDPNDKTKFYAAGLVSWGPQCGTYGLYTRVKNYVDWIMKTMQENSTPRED
Sequence of Human complement C1s enzyme (P09871 16-437 partner limits assumed): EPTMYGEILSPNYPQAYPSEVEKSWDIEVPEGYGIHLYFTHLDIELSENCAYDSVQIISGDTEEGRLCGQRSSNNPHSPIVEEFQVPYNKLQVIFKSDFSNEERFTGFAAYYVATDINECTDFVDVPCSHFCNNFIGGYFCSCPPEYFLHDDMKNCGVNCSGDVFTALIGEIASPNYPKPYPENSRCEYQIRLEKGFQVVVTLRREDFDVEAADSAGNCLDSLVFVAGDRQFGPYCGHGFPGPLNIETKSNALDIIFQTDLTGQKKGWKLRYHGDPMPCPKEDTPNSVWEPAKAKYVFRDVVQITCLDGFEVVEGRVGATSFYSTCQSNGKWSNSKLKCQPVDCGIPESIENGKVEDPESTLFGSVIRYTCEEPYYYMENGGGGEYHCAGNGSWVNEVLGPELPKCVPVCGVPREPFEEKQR

SMILES | IC50
C[C@@H](NC(=O)[C@@H]1CC2(CN1C(=O)CNC(=O)c1ccc3c(c1)-c1ccccc1C3(F)F)OCCO2)c1cc(-c2ncco2)cs1 [Compound 113, (S)-7-((9,9-difluoro-9H-fluorene-3-carbonyl)glycyl)-N—((R)-1-(4-(oxazol-2-yl)thiophen-2-yl)ethyl)-1,4-dioxa-7-azaspiro[4.4]nonane-8-carboxamide] | > 1 µM
C[C@@H](NC(=O)[C@@H]1CC2(CN1C(=O)CNC(=O)c1ccc3c(c1)-c1ccccc1C3(F)F)OCCO2)c1cc(-c2nccs2)cs1 [Compound 114, (S)-7-((9,9-difluoro-9H-fluorene-3-carbonyl)glycyl)-N—((R)-1-(4-(thiazol-2-yl)thiophen-2-yl)ethyl)-1,4-dioxa-7-azaspiro[4.4]nonane-8-carboxamide] | > 1 µM
Cc1ccc(-c2cccc(C(=O)NCC(=O)N3CC4(C[C@H]3C(=O)N[C@H](C)c3cc(C(=N)N)cs3)OCCO4)c2)cc1 [Compound 120, (S)—N—((R)-1-(4-carbamimidoylthiophen-2-yl)ethyl)-7-((4′-methyl-[1,1′-biphenyl]-3-carbonyl)glycyl)-1,4-dioxa-7-azaspiro[4.4]nonane-8-carboxamide] | < 0.1 µM
C[C@@H](NC(=O)[C@@H]1C[C@]2(C)C[C@@H]2N1C(=O)CNC(=O)c1ccc2c(c1)C(F)(F)c1ccccc1-2)c1cc(C(=N)N)cs1 [Compound 121, (1S,3S,5S)—N-[(1R)-1-(4-carbamimidoylthiophen-2-yl)ethyl]-2-{2-[(9,9-difluorofluoren-2-yl)formamido]acetyl}-5-methyl-2-azabicyclo[3.1.0]hexane-3-carboxamide] | < 0.1 µM
Nc1ncccc1-c1csc(CNC(=O)[C@@H]2CC3(CN2C(=O)CNC(=O)c2ccc(Oc4ccc(F)cc4)cc2)OCCO3)c1 [Compound 122, (S)—N-((4-(2-aminopyridin-3-yl)thiophen-2-yl)methyl)-7-((4-(4-fluorophenoxy)benzoyl)glycyl)-1,4-dioxa-7-azaspiro[4.4]nonane-8-carboxamide] | > 1 µM
Nc1ccc(-c2csc(CNC(=O)[C@@H]3CC4(CN3C(=O)CNC(=O)c3ccc(Oc5ccc(F)cc5)cc3)OCCO4)c2)cn1 [Compound 123, (S)—N-((4-(6-aminopyridin-3-yl)thiophen-2-yl)methyl)-7-((4-(4-fluorophenoxy)benzoyl)glycyl)-1,4-dioxa-7-azaspiro[4.4]nonane-8-carboxamide] | > 1 µM
O=C(NCC(=O)N1CC2(C[C@H]1C(=O)NCc1cccs1)OCCO2)c1ccc(Oc2ccc(F)cc2)cc1 [Compound 124, (S)-7-((4-(4-fluorophenoxy)benzoyl)glycyl)-N-(thiophen-2-ylmethyl)-1,4-dioxa-7-azaspiro [4.4]nonane-8-carboxamide] | > 1 µM
CC(=O)ONC(=N)c1csc([C@@H](C)NC(=O)[C@@H]2CC3(CN2C(=O)CNC(=O)c2ccc4c(c2)-c2ccccc2C4(F)F)OCCO3)c1 [Compound 125, (S)—N—((R)-1-(4-(N-acetoxycarbamimidoyl)thiophen-2-yl)ethyl)-7-((9,9-difluoro-9H-fluorene-3-carbonyl)glycyl)-1,4-dioxa-7-azaspiro[4.4]nonane-8-carboxamide] | < 0.1 µM
Cc1ccc(-c2ccc(C(=O)NCC(=O)N3CC4(C[C@H]3C(=O)N[C@H](C)c3cc(C(=N)N)cs3)OCCO4)cc2)cc1 [Compound 126, (S)—N—((R)-1-(4-carbamimidoylthiophen-2-yl)ethyl)-7-((4′-methyl-[1,1′-biphenyl]-4-carbonyl)glycyl)-1,4-dioxa-7-azaspiro[4.4]nonane-8-carboxamide] | < 0.1 µM
C[C@@H](NC(=O)[C@@H]1CC2(CN1C(=O)CNC(=O)c1ccc3c(c1)-c1ccccc1C3F)OCCO2)c1cc(C(=N)N)cs1 (stereo partly drawn) [Compound 127, (8S)—N—((R)-1-(4-carbamimidoylthiophen-2-yl)ethyl)-7-((9-fluoro-9H-fluorene-3-carbonyl)glycyl)-1,4-dioxa-7-azaspiro[4.4]nonane-8-carboxamide] | < 0.1 µM
C[C@@H](NC(=O)[C@@H]1CC2(CN1C(=O)CNC(=O)c1ccc3c(c1)-c1ccccc1C3(F)F)OCCO2)c1cc(C(=N)NO)cs1 [Compound 128, (S)-7-((9,9-difluoro-9H-fluorene-3-carbonyl)glycyl)-N—((R)-1-(4-(N-hydroxycarbamimidoyl)thiophen-2-yl)ethyl)-1,4-dioxa-7-azaspiro[4.4]nonane-8-carboxamide] | < 0.1 µM
C[C@@H](NC(=O)[C@@H]1CC2(CN1C(=O)CNC(=O)c1ccc3c(c1)-c1ccccc1C3(F)F)OCCO2)c1cc(-c2cocn2)cs1 [Compound 129, (8S)-7-{2-[(9,9-difluorofluoren-3-yl)formamido]acetyl}-N-[(1R)-1-[4-(1,3-oxazol-4-yl)thiophen-2-yl]ethyl]-1,4-dioxa-7-azaspiro[4.4]nonane-8-carboxamide] | > 1 µM
C[C@@H](NC(=O)[C@@H]1CC2(CN1C(=O)CNC(=O)c1ccc3c(c1)-c1ccccc1C3(F)F)OCCO2)c1cc(-c2nnc[nH]2)cs1 [Compound 130, (S)—N—((R)-1-(4-(4H-1,2,4-triazol-3-yl)thiophen-2-yl)ethyl)-7-((9,9-difluoro-9H-fluorene-3-carbonyl)glycyl)-1,4-dioxa-7-azaspiro[4.4]nonane-8-carboxamide] | 0.1 to 1 µM
C[C@@H](NC(=O)[C@@H]1C[C@@H](OC(F)F)CN1C(=O)CNC(=O)c1ccc(C(F)(F)c2ccccc2)cc1)c1cc(C(=N)N)cs1 [Compound 131, (2S,4R)—N—((R)-1-(4-carbamimidoylthiophen-2-yl)ethyl)-1-((4-(difluoro(phenyl)methyl)benzoyl)glycyl)-4-(difluoromethoxy)pyrrolidine-2-carboxamide] | < 0.1 µM
C[C@@H](NC(=O)[C@@H]1C[C@@H](OC(F)F)CN1C(=O)CNC(=O)c1ccc2c(c1)-c1ccccc1C2(C)C)c1cc(C(=N)N)cs1 [Compound 132, (2S,4R)—N—((R)-1-(4-carbamimidoylthiophen-2-yl)ethyl)-4-(difluoromethoxy)-1-((9,9-dimethyl-9H-fluorene-3-carbonyl)glycyl)pyrrolidine-2-carboxamide] | < 0.1 µM
C[C@@H](NC(=O)[C@@H]1C[C@](F)(COCCNC(=O)CC[C@H](NC(=O)CCCCCCCCCCCCCCCCC(=O)O)C(=O)O)CN1C(=O)CNC(=O)c1ccc2c(c1)-c1ccccc1C2(F)F)c1cc(C(=N)N)cs1 [Compound 133, 18-(((S)-4-((2-(((3R,5S)-5-(((R)-1-(4-carbamimidoylthiophen-2-yl)ethyl)carbamoyl)-1-((9,9-difluoro-9H-fluorene-3-carbonyl)glycyl)-3-fluoropyrrolidin-3-yl)methoxy)ethyl)amino)-1-carboxy-4-oxobutyl)amino)-18-oxooctadecanoic acid] | < 0.1 µM

Other lines, results leading:

IC50 | SMILES
< 0.1 µM | N=C(N)c1csc(CNC(=O)[C@@H]2CC3(CN2C(=O)CNC(=O)c2ccc(-c4ccc(F)cc4F)cc2)OCCO3)c1 [Compound 107, (S)—N-((4-carbamimidoylthiophen-2-yl)methyl)-7-((2′,4′-difluoro-[1,1′-biphenyl]-4-carbonyl)glycyl)-1,4-dioxa-7-azaspiro[4.4]nonane-8-carboxamide]
< 0.1 µM | Cc1ccc(-c2ccc(C(=O)NCC(=O)N3CC4(C[C@H]3C(=O)NCc3cc(C(=N)N)cs3)OCCO4)cc2)cc1 [Compound 108, (S)—N-((4-carbamimidoylthiophen-2-yl)methyl)-7-((4′-methyl-[1,1′-biphenyl]-4-carbonyl)glycyl)-1,4-dioxa-7-azaspiro[4.4]nonane-8-carboxamide]
< 0.1 µM | C[C@@H](NC(=O)[C@@H]1CC2(CN1C(=O)CNC(=O)c1cccc(-c3ccccc3)c1)OCCO2)c1cc(C(=N)N)cs1 [Compound 109, (S)-7-(([1,1′-biphenyl]-3-carbonyl)glycyl)-N—((R)-1-(4-carbamimidoylthiophen-2-yl)ethyl)-1,4-dioxa-7-azaspiro[4.4]nonane-8-carboxamide]
< 0.1 µM | CC1c2ccccc2-c2cc(C(=O)NCC(=O)N3CC4(C[C@H]3C(=O)NCc3cc(C(=N)N)cs3)OCCO4)ccc21 (stereo partly drawn) [Compound 110, (8S)—N-((4-carbamimidoylthiophen-2-yl)methyl)-7-((9-methyl-9H-fluorene-3-carbonyl)glycyl)-1,4-dioxa-7-azaspiro[4.4]nonane-8-carboxamide]
< 0.1 µM | C[C@@H](NC(=O)[C@@H]1CC2(CN1C(=O)CNC(=O)c1ccc3c(c1)-c1ccccc1C3)OCCO2)c1cc(C(=N)N)cs1 [Compound 111, (S)-7-((9H-fluorene-3-carbonyl)glycyl)-N—((R)-1-(4-carbamimidoylthiophen-2-yl)ethyl)-1,4-dioxa-7-azaspiro[4.4]nonane-8-carboxamide]
< 0.1 µM | C[C@@H](NC(=O)[C@@H]1CC2(CN1C(=O)CNC(=O)c1cccc(-c3ccc(F)cc3)c1)OCCO2)c1cc(C(=N)N)cs1 [Compound 112, (S)—N—((R)-1-(4-carbamimidoylthiophen-2-yl)ethyl)-7-((4′-fluoro-[1,1′-biphenyl]-3-carbonyl)glycyl)-1,4-dioxa-7-azaspiro[4.4]nonane-8-carboxamide]
< 0.1 µM | Cc1cc(C(=O)NCC(=O)N2CC3(C[C@H]2C(=O)NCc2cc(C(=N)N)cs2)OCCO3)ccc1-c1ccccc1 [Compound 115, (S)—N-((4-carbamimidoylthiophen-2-yl)methyl)-7-((2-methyl-[1,1′-biphenyl]-4-carbonyl)glycyl)-1,4-dioxa-7-azaspiro[4.4]nonane-8-carboxamide]
< 0.1 µM | N=C(N)c1csc(CNC(=O)[C@@H]2CC3(CN2C(=O)CNC(=O)c2ccc(-c4ccc(C(F)(F)F)cc4)cc2)OCCO3)c1 [Compound 116, (S)—N-((4-carbamimidoylthiophen-2-yl)methyl)-7-((4′-(trifluoromethyl)-[1,1′-biphenyl]-4-carbonyl)glycyl)-1,4-dioxa-7-azaspiro[4.4]nonane-8-carboxamide]
< 0.1 µM | Cc1ccccc1[C@H]1C[C@@H](C(=O)N[C@H](C)c2cc(C(=N)N)cs2)N(C(=O)CNC(=O)c2ccc3c(c2)-c2ccccc2C3(F)F)C1 [Compound 119, (2S,4R)—N—((R)-1-(4-carbamimidoylthiophen-2-yl)ethyl)-1-((9,9-difluoro-9H-fluorene-3-carbonyl)glycyl)-4-(o-tolyl)pyrrolidine-2-carboxamide]
